Experimental data: patent publication US12637425B2, “Compounds and formulations for treating ophthalmic diseases” (Visus Therapeutics, Inc., priority 2020, dated 2026)

Target: T1, Recombinant cryAB(R120G) protein (Homo sapiens, UniProt P02511, R120G)
T1 sequence (P02511 1-175 R120G): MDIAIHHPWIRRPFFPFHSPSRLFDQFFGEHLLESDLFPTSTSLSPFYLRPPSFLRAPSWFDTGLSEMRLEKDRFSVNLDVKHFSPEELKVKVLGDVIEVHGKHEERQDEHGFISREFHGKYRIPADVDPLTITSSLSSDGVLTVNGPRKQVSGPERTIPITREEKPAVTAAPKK
Assay: Kinetic turbidity aggregation assay of recombinant cryAB(R120G)
Assay type: biochemical
Conditions: for inhibition at 25 µM / % Inhibition of Protein Aggregation, 25 μM cmpd: 25 μM compound; for inhibition at 25 µM: read-out: % Inhibition of Protein Aggregation, 25 μM cmpd; for inhibition at 100 µM / % Inhibition of Protein Aggregation, 100 μM cmpd: 100 μM compound; for inhibition at 100 µM: read-out: % Inhibition of Protein Aggregation, 100 μM cmpd; for IC50: inhibition of cryAB(R120G) protein aggregation; for inhibition at 400 µM: read-out: % Inhibition of Protein Aggregation, 400 μM cmpd
Method: Example A-1: Kinetic Turbidity Aggregation Assay of Recombinant cryAB(R120)
Recombinant cryAB(R120G) protein was diluted to 100 μM in assay buffer (50 mM Tris, 100 mM NaCl, 5 mM DTT, 0.01% Triton X-100, 0.05% PEG-8000). Compounds were dissolved in DMSO at 10 mM then typically diluted to 2.5 mM in DMSO and serially diluted 2-fold as necessary. To a 384-well black microplate in quadruplicate was added 81 μL assay buffer, followed by 15 μL protein solution, and 4 μL compound to give a final concentration of 15 μM cryAB(R120G) protein in 4% DMSO. […] N.D. is not determined.

[1] = 15 μM cryAB(R120G), 42° C., absorbance at 550 nm
[2] = 400 μM compound, 15 μM cryAB(R120G), 42° C., absorbance at 550 nm

| Compound | inhibition at 25 µM [1] | inhibition at 100 µM [1] | % Inhibition of Protein Aggregation, 25 μM cmpd [1] | % Inhibition of Protein Aggregation, 100 μM cmpd [1] | % Inhibition of Protein Aggregation, 400 μM cmpd [2] | IC50 | inhibition at 400 µM [2] |
| --- | --- | --- | --- | --- | --- | --- | --- |
| Cn1cc(C(CNS(=O)(=O)c2ccc3cc[nH]c3c2)N2C[C@H]3COC[C@H]3C2)c2ccccc21 (stereo in doubt) [Compound 31, N-(2-(1-methyl-1H-indol-3-yl)-2-(trans-tetrahydro-1H-furo[3,4-c]pyrrol-5(3H)-yl)ethyl)-1H-indole-6-sulfonamide] | 23% | 70% | – | – | – | – | – |
| CC(C)n1cc(C(CNS(=O)(=O)c2ccc3cc[nH]c3c2)N(C)C)c2ccccc21 (stereo not shown) [Compound 1, N-(2-(dimethylamino)-2-(1-isopropyl-1H-indol-3-yl)ethyl)-1H-indole-6-sulfonamide] | – | – | 84% | 99.5% | 96.6% | ≤ 10 µM | – |
| CCn1cc(C(CNS(=O)(=O)c2ccc3cc[nH]c3c2)N(C)C)c2ccccc21 (stereo not shown) [Compound 2, N-(2-(dimethylamino)-2-(1-ethyl-1H-indol-3-yl)ethyl)-1H-indole-6-sulfonamide] | 88% | 99.4% | – | – | – | ≤ 10 µM | 95% |
| CN(C)C(CNS(=O)(=O)c1ccc2cc[nH]c2c1)c1ccc2[nH]ncc2c1 (stereo not shown) [Compound 3, N-(2-(dimethylamino)-2-(1H-indazol-5-yl)ethyl)-1H-indole-6-sulfonamide] | 58% | 83.7% | – | – | – | – | 99.1% |
| CN1CCN(S(=O)(=O)c2ccc3cc[nH]c3c2)CC1c1cn(C)c2ccccc12 (stereo not shown) [Compound 4, 3-(4-((1H-indol-6-yl)sulfonyl)-1-methylpiperazin-2-yl)-1-methyl-1H-indole] | 66.7% | 62.8% | – | – | – | – | 91.8% |
| Cn1cc(C(CNS(=O)(=O)c2ccc3cc[nH]c3c2)N2CCCC2)c2ccccc21 (stereo not shown) [Compound 5, N-(2-(1-methyl-1H-indol-3-yl)-2-(pyrrolidin-1-yl)ethyl)-1H-indole-6-sulfonamide] | 99.6% | 99.8% | – | – | – | ≤ 10 µM | 97.9% |
| CN(C)C(CNS(=O)(=O)c1ccc2nc[nH]c2c1)c1cn(C)c2ccccc12 (stereo not shown) [Compound 6, N-(2-(dimethylamino)-2-(1-methyl-1H-indol-3-yl)ethyl)-1H-benzo[d]imidazole-6-sulfonamide] | 19.5% | -38% | – | – | – | – | 18.8% |
| CN(C)C(CNS(=O)(=O)c1ccc2cn[nH]c2c1)c1cn(C)c2ccccc12 (stereo not shown) [Compound 7, N-(2-(dimethylamino)-2-(1-methyl-1H-indol-3-yl)ethyl)-1H-indazole-6-sulfonamide] | -21% | -32% | – | – | – | – | 56.6% |
| CN(C)C(CNS(=O)(=O)c1ccc2ccn(C)c2c1)c1cn(C)c2ccccc12 (stereo not shown) [Compound 8, N-(2-(dimethylamino)-2-(1-methyl-1H-indol-3-yl)ethyl)-1-methyl-1H-indole-6-sulfonamide] | -37% | -29% | – | – | – | – | 74.3% |
| CN(C)C(CNS(=O)(=O)c1ccc2ncsc2c1)c1cn(C)c2ccccc12 (stereo not shown) [Compound 11, N-(2-(dimethylamino)-2-(1-methyl-1H-indol-3-yl)ethyl)benzo[d]thiazole-6-sulfonamide] | -6% | -20% | – | – | – | – | 20.5% |
| CC(C)n1cc(C(CNS(=O)(=O)c2ccc3[nH]ccc3c2)N(C)C)c2ccccc21 (stereo not shown) [Compound 12, N-(2-(dimethylamino)-2-(1-isopropyl-1H-indol-3-yl)ethyl)-1H-indole-5-sulfonamide] | 30% | 87.1% | – | – | – | – | 96.1% |
| CC(C)n1cc(C(CNS(=O)(=O)c2cccc3[nH]ccc23)N(C)C)c2ccccc21 (stereo not shown) [Compound 13, N-(2-(dimethylamino)-2-(1-isopropyl-1H-indol-3-yl)ethyl)-1H-indole-4-sulfonamide] | -6% | 32.7% | – | – | – | – | 94.7% |
| CC(C)n1cc(C(CNS(=O)(=O)c2cccc3cc[nH]c23)N(C)C)c2ccccc21 (stereo not shown) [Compound 14, N-(2-(dimethylamino)-2-(1-isopropyl-1H-indol-3-yl)ethyl)-1H-indole-7-sulfonamide] | 11% | 74.9% | – | – | – | – | 81% |
| CN(C)C(CNS(=O)(=O)c1ccc2cc[nH]c2c1)c1ccc2cc[nH]c2n1 (stereo not shown) [Compound 15, N-(2-(dimethylamino)-2-(1H-pyrrolo[2,3-b]pyridin-6-yl)ethyl)-1H-indole-6-sulfonamide] | 50% | 85.8% | – | – | – | – | 67.6% |
| CN(C)C(CNS(=O)(=O)c1ccc2cc[nH]c2c1)c1cccc2ncccc12 (stereo not shown) [Compound 17, N-(2-(dimethylamino)-2-(quinolin-5-yl)ethyl)-1H-indole-6-sulfonamide] | -10.7% | -13% | – | – | – | – | 63.5% |
| COc1ccc2c(c1)c(C(CNS(=O)(=O)c1ccc3cc[nH]c3c1)N(C)C)cn2C (stereo not shown) [Compound 18, N-(2-(dimethylamino)-2-(5-methoxy-1-methyl-1H-indol-3-yl)ethyl)-1H-indole-6-sulfonamide] | 68% | 52.3% | – | – | – | 10 to 50 µM | 98.5% |
| CN(C)C(CNS(=O)(=O)c1ccc2cc[nH]c2c1)c1nn(C)c2ccccc12 (stereo not shown) [Compound 19, N-(2-(dimethylamino)-2-(1-methyl-1H-indazol-3-yl)ethyl)-1H-indole-6-sulfonamide] | 34% | 81.5% | – | – | – | 10 to 50 µM | 99.9% |
| CN(C)C(CNS(=O)(=O)c1ccc2cc[nH]c2c1)c1cn(C)c2ccc(F)cc12 (stereo not shown) [Compound 20, N-(2-(dimethylamino)-2-(5-fluoro-1-methyl-1H-indol-3-yl)ethyl)-1H-indole-6-sulfonamide] | 49% | 99.2% | – | – | – | – | 93.4% |
| Cc1ccc2c(c1)c(C(CNS(=O)(=O)c1ccc3cc[nH]c3c1)N(C)C)cn2C (stereo not shown) [Compound 21, N-(2-(1,5-dimethyl-1H-indol-3-yl)-2-(dimethylamino)ethyl)-1H-indole-6-sulfonamide] | 76% | 99.8% | – | – | – | – | 90.7% |
| CN(C)C(CNS(=O)(=O)c1ccc2cc[nH]c2c1)c1c[nH]c2ccccc12 (stereo not shown) [Compound 22, N-(2-(dimethylamino)-2-(1H-indol-3-yl)ethyl)-1H-indole-6-sulfonamide] | 57% | 99% | – | – | – | – | 95.9% |
| CC(C)n1cc(C(CNS(=O)(=O)c2ccc3cc[nH]c3c2)N(C)C)c2ccccc21 (stereo not shown) [Compound 23, N-(2-(dimethylamino)-2-(1-isopropyl-1H-indol-3-yl)ethyl)-1H-indole-6-sulfonamide] | – | 99% | 61% | – | – | 10 to 50 µM | 100% |
| Cn1cc(C(CNS(=O)(=O)c2ccc3[nH]ccc3c2)N2CCCC2)c2ccccc21 (stereo not shown) [Compound 26, N-(2-(1-methyl-1H-indol-3-yl)-2-(pyrrolidin-1-yl)ethyl)-1H-indole-5-sulfonamide] | -4% | 90.6% | – | – | – | – | – |
| Cn1cc(C(CNS(=O)(=O)c2cccc3[nH]ccc23)N2CCCC2)c2ccccc21 (stereo not shown) [Compound 27, N-(2-(1-methyl-1H-indol-3-yl)-2-(pyrrolidin-1-yl)ethyl)-1H-indole-4-sulfonamide] | – | 85% | −35% | – | – | – | – |
| Cn1cc(C(CNS(=O)(=O)c2cccc3[nH]ccc23)N2CCCC2)c2ccccc21 (stereo not shown) [Compound 28, N-(2-(1-methyl-1H-indol-3-yl)-2-(pyrrolidin-1-yl)ethyl)-1H-indole-4-sulfonamide] | – | – | 7% | 98.5% | – | – | – |
| Cn1cc(C(CNS(=O)(=O)c2ccc3cc[nH]c3c2)N2CCCCC2)c2ccccc21 (stereo not shown) [Compound 29, N-(2-(1-methyl-1H-indol-3-yl)-2-(piperidin-1-yl)ethyl)-1H-indole-6-sulfonamide] | 69% | 99.9% | – | – | – | 10 to 50 µM | – |
| Cn1cc(C(CNS(=O)(=O)c2ccc3cc[nH]c3c2)N2CCOCC2)c2ccccc21 (stereo not shown) [Compound 30, N-(2-(1-methyl-1H-indol-3-yl)-2-morpholinoethyl)-1H-indole-6-sulfonamide] | -28% | 82% | – | – | – | – | – |
| CN(CCO)C(CNS(=O)(=O)c1ccc2cc[nH]c2c1)c1cn(C)c2ccccc12 (stereo not shown) [Compound 32, N-(2-((2-hydroxyethyl)(methyl)amino)-2-(1-methyl-1H-indol-3-yl)ethyl)-1H-indole-6-sulfonamide] | 60% | 98.5% | – | – | – | 10 to 50 µM | – |
